Source: patent US9587225B2, “Low-molecular-compound for improving production, maintenance and proliferation of pluripotent stem cells, composition comprising the same, and culture method” (KOREA RESEARCH INSTITUTE OF BIOSCIENCE AND BIOTECHNOLOGY, priority 2012, dated 2017)

How the values were obtained:
[1] = target: T1, DNA methyl transferase 1 (DNMT1) (Homo sapiens, UniProt P26358); assay: DNMT1 activity during reprogramming; assay type: cell-based; settings: 10 days after induction of reprogramming, compared to untreated control (OSKM alone) (FIG. 20)
T1 construct: endogenous in cells; host or cells: human skin (foreskin) fibroblasts (hFF, ATCC CRL-2097) transduced with OSKM retrovirus
Source text: For comparison, the activity of DNMT1 in the absence of RSC-133 was set at 100%.
RSC133 regulates the activities of epigenetic regulators such as DNA methyltransferase (DNMT) and histone deacetylase (HDAC). At 10 days after induction of reprogramming by RSC133, the activity of DNMT1 was reduced by about 38% compared to that in an untreated control group (OSKM alone) (FIG. 20). Epigenetic chromatin remolding by DNA methylation and/or histone modification plays an important in a wide range of transcriptional regulation in the reprogramming process. […] The increased level of H3K9 histone acetylation (ace) is particularly associated with the restoration of pluripotency and reprogramming ability. It is known that DNA methylation by DNMT1 has a close connection with the change in chromatin status caused by HDAC activity.

[2] = test system: Nanog, Oct4, Rex1, p53, p21 and p16; assay: Expression of pluripotency markers and p53, p21, p16 during reprogramming (real-time RT-PCR, immunostaining); assay type: cell-based, human
Method: In still another example of the present invention, in order to examine whether the novel compound RSC-133 can promote kinetics in a culture process for reprogramming to shorten the time required for the induction of reprogramming, the expression patterns of pluripotency-specific markers were analyzed at various time points.
Total RNA was isolated from the produced cells using RNeasy Mini kit (Qiagen, Valencia, Calif.), and then reverse-transcribed using SuperScript First-strand synthesis system kit (Invitrogen) according to the manufacturer's instruction. […]
In order to examine whether RSC-133 can increase the rate of reprogramming, the relative levels of mRNA expressed during the reprogramming process were measured. […] Thus, it can be seen that RSC-133 can increase the efficiency of reprogramming and also can be involved in the reprogramming process to stimulate kinetics.

human skin fibroblasts [3] = assay: BrdU immunocytochemical analysis of proliferating cell population; assay type: cell-based
Method: Immunocytochemical analysis was performed using monoclonal antibody for bromodeoxyuridine (BrdU), and then percent BrdU positive cells are graphically shown. The values shown on the graph are mean values. The data are expressed as ±SD (n=3) (*P<0.05, by t-test).
The left panel is a set of graphs showing the results of immunocytochemical analysis performed using monoclonal antibody for BrdU, and the right panel is a graph showing the results of measurement of percent BrdU positive cells. The values shown on the graph are mean values. The data are expressed as mean±SD (n=3).
For immunostaining, cells were seeded on Matrigel-coated 4-well Lab-Tek chamber slides (Nunc, Naperville, Ill.) and cultured for 5 days under the indicated conditions. The cells were fixed in 4% paraformaldehyde at room temperature for 15 minutes, and then washed with PBS/0.2% BSA. Next, the cells were passed through PBS/0.2% BSA/0.1% Triton X-100 for 15 minutes, and then incubated with 4% normal donkey serum (Molecular Probes, Eugene, Oreg., USA) in PBS/0.2% BSA at room temperature for 1 hour. The cells were diluted with PBS/0.2% BSA, and then reacted with primary antibody at 4° C. for 2 hours. After washing, the cells were reacted with FITC- or Alexa594-conjugated secondary antibody (Invitrogen) in PBS/0.2% BSA at room temperature for 1 hour. The cells were counter-stained with 10 μg/ml DAPI. […]

human skin fibroblasts [4] = assay: Cell growth (total number of cells) during reprogramming culture; assay type: cell-based
Source text: In still another example of the present invention, whether the novel compound RSC-133 has the effect of promoting the growth and proliferation of cells in a culture process for inducing reprogramming was examined by measuring the total number of cells at various time points (FIG. 11). […] In addition, a change in the proliferation of cells during a culture process for inducing reprogramming was examined by a BrdU assay.
FIG. 11 is a graph showing the effect of RSC-133 on cell growth during a reprogramming process. The results were obtained in the same manner as those in FIG. 10. The values shown on the graph are mean values. The data ate are expressed as mean±SD (n=3).
FIG. 12 is a graph showing the results of examining the effect of RSC-133 on the growth of human skin fibroblasts or human skin fibroblasts infected with a reprogramming factor (OSKM) virus. The values shown on the graph are mean values. The data are mean±SD (n=3).
In addition, the growth rate of cells is associated with the self-renewal ability of embryonic stem cells. Thus, whether the novel compound RSC-133 can promote cell growth during reprogramming was examined. As a result, it could be seen that when reprogramming was induced while the cells were treated with RSC-133, the growth rate of the cells increased by about 1.7 times compared to that of the control group (FIG. 11). […]

[5] = test system: human skin fibroblasts (hFFs); assay: Reprogramming of human skin fibroblasts, AP-positive colony count; assay type: cell-based

T1 sequence (P26358 whole entry): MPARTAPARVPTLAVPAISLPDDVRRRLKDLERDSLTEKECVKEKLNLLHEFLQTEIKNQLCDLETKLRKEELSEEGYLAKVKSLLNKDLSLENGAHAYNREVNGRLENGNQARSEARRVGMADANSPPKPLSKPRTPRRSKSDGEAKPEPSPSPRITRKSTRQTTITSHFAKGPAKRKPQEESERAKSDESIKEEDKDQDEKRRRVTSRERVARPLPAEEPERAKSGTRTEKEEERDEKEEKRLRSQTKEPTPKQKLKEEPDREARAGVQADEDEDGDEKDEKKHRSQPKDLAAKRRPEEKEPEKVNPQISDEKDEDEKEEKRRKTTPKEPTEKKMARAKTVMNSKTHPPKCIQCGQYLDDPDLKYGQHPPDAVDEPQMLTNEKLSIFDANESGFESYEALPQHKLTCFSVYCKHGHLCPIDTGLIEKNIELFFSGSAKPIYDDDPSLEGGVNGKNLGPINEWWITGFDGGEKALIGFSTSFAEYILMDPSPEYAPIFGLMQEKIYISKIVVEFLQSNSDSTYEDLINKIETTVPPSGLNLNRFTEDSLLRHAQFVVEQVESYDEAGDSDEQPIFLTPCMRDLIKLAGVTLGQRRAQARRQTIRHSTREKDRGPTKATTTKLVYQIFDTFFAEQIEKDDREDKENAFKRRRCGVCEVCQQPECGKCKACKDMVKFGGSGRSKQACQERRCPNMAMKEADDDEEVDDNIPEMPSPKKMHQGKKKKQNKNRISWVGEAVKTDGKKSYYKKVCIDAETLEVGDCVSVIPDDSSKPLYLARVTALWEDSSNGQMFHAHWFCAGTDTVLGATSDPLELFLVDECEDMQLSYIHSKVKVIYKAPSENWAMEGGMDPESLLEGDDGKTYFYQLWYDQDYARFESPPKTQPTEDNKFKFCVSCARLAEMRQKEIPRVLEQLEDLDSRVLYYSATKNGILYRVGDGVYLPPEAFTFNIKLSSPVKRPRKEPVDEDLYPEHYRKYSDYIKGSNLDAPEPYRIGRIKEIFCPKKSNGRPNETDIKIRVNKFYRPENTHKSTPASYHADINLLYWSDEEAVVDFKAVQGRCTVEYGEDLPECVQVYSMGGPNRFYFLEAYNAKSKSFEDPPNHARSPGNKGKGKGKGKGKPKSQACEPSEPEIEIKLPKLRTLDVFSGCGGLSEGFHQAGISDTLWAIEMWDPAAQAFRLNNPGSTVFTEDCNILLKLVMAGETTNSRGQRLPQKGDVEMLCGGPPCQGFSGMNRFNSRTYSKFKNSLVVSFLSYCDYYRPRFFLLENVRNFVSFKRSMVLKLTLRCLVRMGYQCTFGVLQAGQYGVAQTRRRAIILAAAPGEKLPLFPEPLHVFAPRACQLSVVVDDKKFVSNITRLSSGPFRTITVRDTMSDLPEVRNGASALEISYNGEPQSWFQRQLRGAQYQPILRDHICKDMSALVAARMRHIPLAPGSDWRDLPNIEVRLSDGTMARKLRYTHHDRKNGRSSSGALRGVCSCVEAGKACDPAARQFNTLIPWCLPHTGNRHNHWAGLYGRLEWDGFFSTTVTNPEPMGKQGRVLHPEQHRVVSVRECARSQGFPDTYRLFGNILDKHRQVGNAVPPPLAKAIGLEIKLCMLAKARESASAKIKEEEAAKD

What does the source list for NC(=O)c1cccc(NC(=O)/C=C/c2c[nH]c3ccccc23)c1 [RSC-133, 3-[3-(1H-indol-3-yl)-acrylamido]-benzamide]?
reduction of the activity of DNMT1 [1]: about 38%; time of appearance of pluripotency-specific markers (Nanog, Tra1-81, Oct4, Rex1) ([2]; immunostaining and real-time PCR at various time points (FIGS. 15, 16)): appeared early than that in an untreated control group; expression levels of undifferentiation markers Nanog, Oct4 and Rex1 ([2]; real-time RT-PCR, cells harvested at 5-day intervals, presence vs absence of RSC-133 (FIG. 16)): relatively increased; expression levels of p53, p21 and p16 ([2]; real-time RT-PCR, presence vs absence of RSC-133 (FIG. 16 lower panel)): relatively inhibited; BrdU-positive cell population, reprogramming not induced (human skin fibroblasts [3]; OSKM-transfected human skin fibroblasts, reprogramming not induced (FIG. 14)): increased BrdU-positive cell population; BrdU-positive cell population during the reprogramming process (human skin fibroblasts [3]; during reprogramming (FIG. 13)): increased BrdU-positive cell population; growth of cells, reprogramming not induced (human skin fibroblasts [4]; human skin fibroblasts or OSKM-transfected fibroblasts, reprogramming not induced (FIG. 12)): increased the growth of the cells; increase of growth rate of the cells during reprogramming (human skin fibroblasts [4]; reprogramming induced, compared to control group (FIG. 11)): about 1.7 times; substitution for reprogramming factor c-Myc, compound alone ([5]; RSC-133 alone, AP-positive colonies (FIG. 5)): did not show the substituting effect; substitution for reprogramming factor c-Myc, in combination with sodium butyrate ([5]; RSC-133 in combination with sodium butyrate (NaB), compared to control group (FIG. 5)): substituted for c-Myc factor to increase the efficiency of reprogramming; efficiency of reprogramming, treatment in the initial stage ([5]; initial stage (including 5 days after viral infection), compared to other periods of equal length (FIG. 10)): significantly increased
